# Columns and labels:
# GPR35 = GPR35 (Homo sapiens, UniProt Q9HC97, S294R); assay: Changes in intracellular calcium levels on FLIPR, CHO cell line stably co-expressing human GPR35 and Gα16; format: cell-based; set-up: expressed in transfected cells
# Experimental: The Gα16-stably expressed cell line (Gα16/CHO cell line) as a host cell was prepared by transfecting the Gα16 expression vector (Guthrie cDNA Resource Center) into CHO cells in a conventional manner and incubating at 37° C. under 5% CO2 in αMEM medium (containing nucleic acid; Invitrogen) supplemented with 10% fetal calf serum (Invitrogen), 50 units/ml penicillin/50 ug/ml streptomycin (CAMBREX) and 1 mg/ml geneticin (Invitrogen). The cells that were incubated for 2 days in αMEM medium (containing nucleic acid) supplemented only with 10% fetal calf serum charged in a 75 cm^2 flask were used for the transfection. The transfection was carried out using Lipofectamine reagent (Invitrogen) by a modification of the protocol attached to the reagent. First, 2 centrifuge tubes each having a 15 ml volume were prepared and 600 μl each of Opti-MEM medium (Invitrogen) was dispensed in each tube. Next, 4.8 μg of the expression vector was charged in one tube and in another tube 36 μl of Lipofectamine reagent was charged, which were mixed together. The mixture was settled for 20 minutes at room temperature. […] The cells obtained were counted and diluted with αMEM medium (containing no nucleic acid; Invitrogen) supplemented only with 10% dialyzed fetal calf serum to have 0.3, 1.5 and 7.5 cells per 100 μl of the medium. […]
# mouse GPR35 = target: T1, mouse GPR35 (Mus musculus, UniProt Q9ES90, D300Y/S286F); assay: Reactivity on FLIPR, CHO-K1 cells transfected with mouse GPR35 expression vector; format: cell-based
# T1 construct: the digestion product was inserted into plasmid vector pAKKO-111H; expressed in transfected cells; host or cells: CHO-K1 cells
# Experimental: The CHO-K1 cell line (purchased from ATCC) was incubated in HAM F-12 medium (Invitrogen) supplemented with 10% fetal calf serum, unless otherwise indicated. On the day before transfection, the cells were inoculated at 4.5×10^5/10 cm^2 and incubated at 37° C. for 15 hours or more in a CO2 incubator adjusted to 5% CO2 concentration. Using Lipofectamine reagent (Invitrogen), transfection was performed according to modifications of the procedure attached to the reagent. When a 6-well plate was used as the incubator, the transfection was performed as follows. Two tubes each having a 1.5 ml volume were prepared and 100 μl each of Opti-MEM medium (Invitrogen) was dispensed in each tube. […] The cells obtained were counted and diluted to 5×10^4 cells per 100 μl of the medium. […]
# To assay the changes in intracellular calcium levels on FLIPR, the following pretreatment was made. First, an assay buffer was prepared to add fluorescence dye Fluo-3AM (DOJIN) to the cells, or to wash the cells immediately before the FLIPR assay. […] After mixing them, the mixture was added to 10.6 ml of an assay buffer supplemented with 105 μl of fetal calf serum to give a fluorescence dye solution. […]
# T1 sequence (Q9ES90 whole entry S286F/D300Y): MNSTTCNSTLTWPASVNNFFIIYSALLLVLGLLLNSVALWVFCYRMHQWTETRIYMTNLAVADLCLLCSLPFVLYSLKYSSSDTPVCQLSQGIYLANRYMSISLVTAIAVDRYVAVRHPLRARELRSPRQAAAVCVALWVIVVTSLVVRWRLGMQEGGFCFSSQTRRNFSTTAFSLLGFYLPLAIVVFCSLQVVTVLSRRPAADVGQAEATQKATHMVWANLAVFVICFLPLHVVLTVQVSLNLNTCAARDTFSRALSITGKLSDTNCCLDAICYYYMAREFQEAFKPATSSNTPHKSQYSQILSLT
# Sequence of GPR35 (Q9HC97 whole entry S294R): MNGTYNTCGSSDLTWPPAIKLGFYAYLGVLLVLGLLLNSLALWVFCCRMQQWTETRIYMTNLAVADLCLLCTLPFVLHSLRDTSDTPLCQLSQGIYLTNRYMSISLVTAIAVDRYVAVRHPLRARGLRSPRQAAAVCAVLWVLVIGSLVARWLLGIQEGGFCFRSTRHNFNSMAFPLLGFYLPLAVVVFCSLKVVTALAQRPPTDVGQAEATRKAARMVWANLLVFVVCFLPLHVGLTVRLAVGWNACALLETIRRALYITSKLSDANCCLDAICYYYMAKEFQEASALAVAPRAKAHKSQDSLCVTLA
smiles,measurement,setting,value
"O=C1N=c2cc([N+](=O)[O-])c([N+](=O)[O-])cc2=NC1=O [DNQX, 6,7-dinitroquinoxaline-2,3-dione]",intracellular calcium levels,GPR35,increased
same,reactivity of mouse GPR35 (FLIPR),mouse GPR35,responsive

# From patent publication US7892755B2, “Screening method” (Takeda Pharmaceutical Company Limited, priority 2004, dated 2011)
